Experimental data as given in US20080255134A1 (Artesian Therapeutics, Inc., priority 2004, published 2008).
Like-named read-outs stand apart in the source and are kept apart here.

Target: T1, PDE3 (Homo sapiens, UniProt Q14432)
T1 construct: from tissue; host or cells: human platelets
Assay: In vitro assay for cAMP PDE-3 inhibitory activity
Format: biochemical
Details: human platelet cyclic AMP phosphodiesterase, bound stated
Experimental: Human platelet cyclic AMP phosphodiesterase was prepared according to the method of Alvarez et al., Mol. Pharmacol. 29: 554 (1986). The PDE incubation medium contained 10 mM Tris-HCl buffer, pH 7.7, 10 mM MgSO4, and 1 μM […] (0.2 μCi) in a total volume of 1.0 mL. Test compounds were dissolved in DMSO immediately prior to addition to the incubation medium, and the resulting mixture was allowed to stand for 10 minutes prior to the addition of enzyme. Following the addition of PDE, the contents were mixed and incubated for 10 minutes at 30° C. Three assays each were performed for each of five test compound concentrations, the mean of the determinations (n=3) at each concentration was plotted, and IC50 values were determined graphically.
The ability of Compounds 25 and 8c to inhibit PDE3 and β-adrenergic receptor activity was examined both in vitro and in vivo. […] Non-selective β-adrenergic and β1-adrenergic radioligand binding assays were performed using rat cortical membranes; β2-adrenergic receptor assays were performed using membranes isolated from CHO cells expressing human, recombinant b2-adrenergic receptor; non-selective α1-adrenergic receptor assays were performed using rat forebrain membranes; and PDE3 binding assays were performed on human platelets. Values in percent illustrate percent inhibition at 1000 nM concentration.

[1] = read-out: PDE IC50 inhibition values

T1 sequence (Q14432 whole entry): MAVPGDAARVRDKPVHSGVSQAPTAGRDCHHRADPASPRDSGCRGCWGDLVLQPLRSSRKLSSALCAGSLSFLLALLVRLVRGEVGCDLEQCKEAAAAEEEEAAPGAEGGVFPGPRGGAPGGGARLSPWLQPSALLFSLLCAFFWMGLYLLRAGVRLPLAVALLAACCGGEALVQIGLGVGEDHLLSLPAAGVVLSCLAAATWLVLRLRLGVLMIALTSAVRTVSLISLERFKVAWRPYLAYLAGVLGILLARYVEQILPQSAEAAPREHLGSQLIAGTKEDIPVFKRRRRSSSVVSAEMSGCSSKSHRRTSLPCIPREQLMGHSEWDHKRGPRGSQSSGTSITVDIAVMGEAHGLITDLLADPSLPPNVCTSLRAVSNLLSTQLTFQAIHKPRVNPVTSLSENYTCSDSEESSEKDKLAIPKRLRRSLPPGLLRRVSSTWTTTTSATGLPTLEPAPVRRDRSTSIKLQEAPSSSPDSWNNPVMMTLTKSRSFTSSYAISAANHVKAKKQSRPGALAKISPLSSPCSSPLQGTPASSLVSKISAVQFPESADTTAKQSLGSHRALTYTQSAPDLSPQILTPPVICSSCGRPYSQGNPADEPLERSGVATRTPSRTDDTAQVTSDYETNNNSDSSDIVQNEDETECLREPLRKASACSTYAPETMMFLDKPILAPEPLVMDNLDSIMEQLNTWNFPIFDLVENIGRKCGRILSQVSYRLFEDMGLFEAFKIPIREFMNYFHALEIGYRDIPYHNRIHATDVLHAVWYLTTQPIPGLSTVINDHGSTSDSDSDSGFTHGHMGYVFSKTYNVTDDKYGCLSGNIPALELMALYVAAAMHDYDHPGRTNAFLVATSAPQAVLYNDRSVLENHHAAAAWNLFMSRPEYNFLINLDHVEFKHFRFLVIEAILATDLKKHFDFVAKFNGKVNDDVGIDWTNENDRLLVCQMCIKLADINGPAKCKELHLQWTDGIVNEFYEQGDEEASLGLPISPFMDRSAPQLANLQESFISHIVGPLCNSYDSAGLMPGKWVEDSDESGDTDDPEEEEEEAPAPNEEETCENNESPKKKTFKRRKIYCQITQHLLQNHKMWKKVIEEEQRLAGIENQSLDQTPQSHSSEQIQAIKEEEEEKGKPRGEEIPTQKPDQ

Row | SMILES | IC50 (read-out: PDE3 inhibition IC50) [µM] | IC50 [1] [µM]
1 | COCCc1ccc(OCC(O)CNC2CCN(C(=O)COc3ccc(C4=NNC(=O)CC4)cc3Cl)CC2)cc1 (racemic) [Compound 13, 6-{3-Chloro-4-[2-(4-{2-hydroxy-3-[4-(2-methoxy-ethyl)-phenoxy]-propylamino}-piperidin-1-yl)-2-oxo-ethoxy]-phenyl}-4,5-dihydro-2H-pyridazin-3-one] | < 1 | –
2 | O=C1CCC(c2ccc(OCC(=O)N3CCC(NC[C@H](O)COc4ccccc4)CC3)c(Cl)c2)=NN1 [Compound 8a, 6-(3-chloro-4-{2-[4-(2-hydroxy-3-phenoxy-propylamino)-piperidin-1-yl]-2-oxo-ethoxy}-phenyl)-4,5-dihydro-2H-pyridazin-3-one] | < 1 | –
3 | O=C1CCC(c2ccc(OCC(=O)N3CCC(NC[C@H](O)COc4ccccc4F)CC3)c(Cl)c2)=NN1 [Compound 8b, 6-[3-Chloro-4-(2-{4-[3-(2-fluoro-phenoxy)-2-hydroxy-propylamino]-piperidin-1-yl}-2-oxo-ethoxy)-phenyl]-4,5-dihydro-2H-pyridazin-3-one] | < 1 | –
4 | N#Cc1ccccc1OC[C@@H](O)CNC1CCN(C(=O)COc2ccc(C3=NNC(=O)CC3)cc2Cl)CC1 [Compound 8e, 2-[3-(1-{2-[2-chloro-4-(6-oxo-1,4,5,6-tetrahydro-pyridazin-3-yl)-phenoxy]-acetyl}-piperidin-4-ylamino)-2-hydroxy-propoxy]-benzonitrile] | < 1 | –
5 | Cc1ccccc1OC[C@@H](O)CNC1CCN(C(=O)COc2ccc(C3=NNC(=O)CC3)cc2Cl)CC1 [Compound 8f, 6-(3-chloro-4-{2-[4-(2-hydroxy-3-o-tolyloxy-propylamino)-piperidin-1-yl]-2-oxo-ethoxy}-phenyl)-4,5-dihydro-2H-pyridazin-3-one] | < 1 | –
6 | COc1ccccc1OC[C@@H](O)CNC1CCN(C(=O)COc2ccc(C3=NNC(=O)CC3)cc2Cl)CC1 [Compound 8h, 6-[3-chloro-4-(2-{4-[2-hydroxy-3-(2-methoxy-phenoxy)-propylamino]-piperidin-1-yl}-2-oxo-ethoxy)-phenyl]-4,5-dihydro-2H-pyridazin-3-one] | < 1 | –
7 | O=C1CCC(c2ccc(OCC(=O)N3CCC(NC[C@H](O)COc4ccccc4OC(F)(F)F)CC3)c(Cl)c2)=NN1 [Compound 8i, 6-[3-chloro-4-(2-{4-[2-hydroxy-3-(2-trifluoromethoxy-phenoxy)-propylamino]-piperidin-1-yl}-2-oxo-ethoxy)-phenyl]-4,5-dihydro-2H-pyridazin-3-one] | < 1 | < 0.1
8 | C=CCc1ccccc1OC[C@@H](O)CNC1CCN(C(=O)COc2ccc(C3=NNC(=O)CC3)cc2Cl)CC1 [Compound 8j, 6-[4-(2-{4-[3-(2-allyl-phenoxy)-2-hydroxy-propylamino]-piperidin-1-yl}-2-oxo-ethoxy)-3-chloro-phenyl]-4,5-dihydro-2H-pyridazin-3-one] | < 1 | < 0.1
9 | CC(=O)c1ccccc1OC[C@@H](O)CNC1CCN(C(=O)COc2ccc(C3=NNC(=O)CC3)cc2Cl)CC1 [Compound 8k, 6-[4-(2-{4-[3-(2-acetyl-phenoxy)-2-hydroxy-propylamino]-piperidin-1-yl}-2-oxo-ethoxy)-3-chloro-phenyl]-4,5-dihydro-2H-pyridazin-3-one] | < 1 | –
10 | O=C1CCC(c2ccc(OCC(=O)N3CCC(NC[C@H](O)COc4cccc(Br)c4)CC3)c(Cl)c2)=NN1 [Compound 8l, 6-[4-(2-{4-[3-(3-bromo-phenoxy)-2-hydroxy-propylamino]-piperidin-1-yl}-2-oxo-ethoxy)-3-chloro-phenyl]-4,5-dihydro-2H-pyridazin-3-one] | < 1 | –
11 | N#Cc1cccc(OC[C@@H](O)CNC2CCN(C(=O)COc3ccc(C4=NNC(=O)CC4)cc3Cl)CC2)c1 [Compound 8m, 3-[3-(1-{2-[2-chloro-4-(6-oxo-1,4,5,6-tetrahydro-pyridazin-3-yl)-phenoxy]-acetyl}-piperidin-4-ylamino)-2-hydroxy-propoxy]-benzonitrile] | < 1 | –
12 | N#Cc1ccc(OC[C@@H](O)CNC2CCN(C(=O)COc3ccc(C4=NNC(=O)CC4)cc3Cl)CC2)cc1 [Compound 8o, 4-[3-(1-{2-[2-chloro-4-(6-oxo-1,4,5,6-tetrahydro-pyridazin-3-yl)-phenoxy]-acetyl}-piperidin-4-ylamino)-2-hydroxy-propoxy]-benzonitrile] | < 1 | –
13 | COCCc1ccc(OC[C@@H](O)CNC2CCN(C(=O)COc3ccc(C4=NNC(=O)CC4)cc3Cl)CC2)cc1 [Compound 8r, 6-{3-chloro-4-[2-(4-{2-hydroxy-3-[4-(2-methoxy-ethyl)-phenoxy]-propylamino}-piperidin-1-yl)-2-oxo-ethoxy]-phenyl}-4,5-dihydro-2H-pyridazin-3-one] | < 1 | –
14 | O=C1CCC(c2ccc(OCC(=O)N3CCC(NC[C@H](O)COc4cccc5[nH]c6ccccc6c45)CC3)c(Cl)c2)=NN1 [Compound 17, 6-[4-(2-{4-[(S)-3-(9H-Carbazol-4-yloxy)-2-hydroxy-propylamino]-piperidin-1-yl}-2-oxo-ethoxy)-3-chloro-phenyl]-4,5-dihydro-2H-pyridazin-3-one] | < 1 | –
15 | O=C1CCC(c2ccc(OCCNC[C@H](O)COc3cccc4[nH]c5ccccc5c34)c(Cl)c2)=NN1 [Compound 22, 6-(4-{2-[(S)-3-(9H-carbazol-4-yloxy)-2-hydroxy-propylamino]-ethoxy}-3-chloro-phenyl)-4,5-dihydro-2H-pyridazin-3-one] | < 1 | < 0.1
16 | O=C1CCC(c2ccc(OCCCNC[C@H](O)COc3cccc4[nH]c5ccccc5c34)c(Cl)c2)=NN1 [Compound 29, 6-(4-{3-[(S)-3-(9H-Carbazol-4-yloxy)-2-hydroxy-propylamino]-propoxy}-3-chloro-phenyl)-4,5-dihydro-2H-pyridazin-3-one] | < 1 | < 0.1
17 | O=C1CCC(c2ccc(OCC(=O)N3CCC(NC[C@H](O)COc4ccc5c(c4)[nH]c4ccccc45)CC3)c(Cl)c2)=NN1 [Compound 33, 6-[4-(2-{4-[(S)-3-(9H-Carbazol-2-yloxy)-2-hydroxy-propylamino]-piperidin-1-yl}-2-oxo-ethoxy)-3-chloro-phenyl]-4,5-dihydro-2H-pyridazin-3-one] | < 1 | –
18 | O=C1CCC(c2ccc(OCCNCC(O)COc3ccc4c(c3)[nH]c3ccccc34)c(Cl)c2)=NN1 (stereo not shown) [Compound 34, 6-(4-{2-[3-(9H-carbazol-2-yloxy)-2-hydroxy-propylamino]-ethoxy}-3-chloro-phenyl)-4,5-dihydro-2H-pyridazin-3-one] | < 1 | –
19 | O=C1CCC(c2ccc(OCCCNC[C@H](O)COc3ccc4c(c3)[nH]c3ccccc34)c(Cl)c2)=NN1 [Compound 35, 6-(4-{3-[(S)-3-(9H-Carbazol-2-yloxy)-2-hydroxy-propylamino]-propoxy}-3-chloro-phenyl)-4,5-dihydro-2H-pyridazin-3-one] | < 1 | –
20 | COCCc1ccc(OC[C@@H](O)CNCCCOc2ccc(C3=NNC(=O)CC3)cc2Cl)cc1 [Compound 36] | < 1 | < 0.1
21 | COCCc1ccc(OC[C@@H](O)CNC(C)(C)CNC(=O)COc2ccc(C3=NNC(=O)CC3)cc2Cl)cc1 [Compound 40, 2-[2-Chloro-4-(6-oxo-1,4,5,6-tetrahydro-pyridazin-3-yl)-phenoxy]-N-(2-{(S)-2-hydroxy-3-[4-(2-methoxy-ethyl)-phenoxy]-propylamino}-2-methyl-propyl)-acetamide] | < 1 | –
22 | COCCc1ccc(OC[C@@H](O)CNC2CCN(C(=O)COc3ccc(C4=NNC(=O)CC4)cc3Cl)C2)cc1 (stereo partly drawn) [Compound 42, 6-{3-Chloro-4-[2-(3-{(S)-2-hydroxy-3-[4-(2-methoxy-ethyl)-phenoxy]-propylamino}-pyrrolidin-1-yl)-2-oxo-ethoxy]-phenyl}-4,5-dihydro-2H-pyridazin-3-one] | < 1 | –
23 | COCCc1ccc(OC[C@@H](O)CNCCCCCOc2ccc(C3=NNC(=O)CC3)cc2Cl)cc1 [Compound 46] | < 1 | –
24 | COCCc1ccc(OC[C@@H](O)CNC2CN(C(=O)COc3ccc(C4=NNC(=O)CC4)cc3Cl)C2)cc1 [Compound 48, 6-{3-Chloro-4-[2-(3-{(S)-2-hydroxy-3-[4-(2-methoxy-ethyl)-phenoxy]-propylamino}-azetidin-1-yl)-2-oxo-ethoxy]-phenyl}-4,5-dihydro-2H-pyridazin-3-one] | < 1 | –
25 | O=C1CCC(c2ccc(OCCNCC(O)COc3cccc4[nH]ccc34)c(Cl)c2)=NN1 (stereo not shown) [Compound 52] | < 1 | < 0.1
26 | O=C1CCC(c2ccc(OCCCCNCC(O)COc3cccc4[nH]c5ccccc5c34)c(Cl)c2)=NN1 (stereo not shown) [Compound 56] | < 1 | < 0.1
27 | O=C1CCC(c2ccc(OCCCCCNCC(O)COc3cccc4[nH]c5ccccc5c34)c(Cl)c2)=NN1 (stereo not shown) [Compound 57] | < 1 | –
28 | O=C1CCC(c2ccc(OCC(=O)N3CCC(NCC(O)COc4cccc5[nH]c6ccccc6c45)CC3)c(Cl)c2)=NN1 (stereo not shown) [Compound 63, 6-[4-(2-{4-[3-(9H-Carbazol-4-yloxy)-2-hydroxy-propylamino]-piperidin-1-yl}-2-oxo-ethoxy)-3-chloro-phenyl]-4,5-dihydro-2H-pyridazin-3-one] | < 1 | –
29 | O=C1CCC(c2ccc(OCCCNCC(O)COc3cccc4[nH]c5ccccc5c34)c(Cl)c2)=NN1 (stereo not shown) [Compound 64, 6-(4-{3-[3-(9H-Carbazol-4-yloxy)-2-hydroxy-propylamino]-propoxy}-3-chloro-phenyl)-4,5-dihydro-2H-pyridazin-3-one] | < 1 | < 0.1
